Data on 7 molecules can be found in ChEMBL document CHEMBL1146534, “Synthetic method and biological activities of cis-fused alpha-methylene gamma-lactones” (2003).

Common to all, as to assay type: functional
In test [1] the test system is P388. The test is described as follows: Cytotoxicity against mouse P388 cells assessed as cell growth inhibitory ratio at 10 ug/mL after 48 hrs relative to control. More on the design: scale not given: the % may be the effect or the level left.
Test [2] deals with P388. The test is described as follows: Cytotoxicity against mouse P388 cells assessed as cell growth inhibitory ratio at 1 ug/mL after 48 hrs relative to control. Further details: scale not given: the % may be the effect or the level left.
Test [3] concerns P388. The test is described as follows: Cytotoxicity against mouse P388 cells assessed as cell growth inhibitory ratio at 0.1 ug/mL after 48 hrs relative to control. More on the design: scale not given: the % may be the effect or the level left.
In the next test the test system is Rhizoctonia solani. The test is described as follows: Prevention of Rhizoctonia solani-mediated sheath blight of rice disease at 500 ppm after 4 days at 28 degC by Pot test.
In the next test the test system is Blumeria graminis. The test is described as follows: Prevention of Erysiphe graminis-mediated powdery mildew of wheat disease at 500 ppm after 10 days at 22 deg C under fluorescent lamp by Pot test.
A further test relates to Pythium aphanidermatum. The test is described as follows: Prevention of Pythium aphanidermatum-mediated damping off of cucumber disease at 500 ppm/20 mL per pot after 14 days at 25 degC under green house by Pot test.
Test [4] has as its system Venturia inaequalis. Put plainly: Prevention of Venturia inaequalis-mediated scab of apple disease at 500 ppm by Pot test.
The test system of test [5] is Mycosphaerella. The test is described as follows: Antimicrobial activity against Mycosphaerella melonis at 200 ppm after 4 days at 28 degC.
Test [6] deals with Pyrenophora graminea. The test is described as follows: Antimicrobial activity against Pyrenophora graminea at 200 ppm after 4 days at 28 degC.
The test system of test [7] is Alternaria. Put plainly: Antimicrobial activity against Alternaria kikuchiana at 200 ppm after 4 days at 28 degC.
Test [8] relates to Venturia inaequalis. Put plainly: Antimicrobial activity against Venturia inaequalis at 200 ppm after 11 days at 18 degC.
Test [9] deals with Rhynchosporium secalis. Put plainly: Antimicrobial activity against Rhynchosporium secalis at 200 ppm after 11 days at 18 degC.
For test [10], the system named is Mycosphaerella. The test is described as follows: Antimicrobial activity against Mycosphaerella melonis at 100 ppm after 4 days at 28 degC.
The test system of test [11] is Pyrenophora graminea. Put plainly: Antimicrobial activity against Pyrenophora graminea at 100 ppm after 4 days at 28 degC.
Test [12] relates to Alternaria. Put plainly: Antimicrobial activity against Alternaria kikuchiana at 100 ppm after 4 days at 28 degC.
Test [13] deals with Venturia inaequalis. Put plainly: Antimicrobial activity against Venturia inaequalis at 100 ppm after 11 days at 18 degC.
Test [14] concerns Rhynchosporium secalis. The test is described as follows: Antimicrobial activity against Rhynchosporium secalis at 100 ppm after 11 days at 18 degC.
Test [15] concerns Mycosphaerella. The test is described as follows: Antimicrobial activity against Mycosphaerella melonis at 50 ppm after 4 days at 28 degC.
For test [16], the system named is Pyrenophora graminea. The test is described as follows: Antimicrobial activity against Pyrenophora graminea at 50 ppm after 4 days at 28 degC.
For test [17], the system named is Alternaria. The test is described as follows: Antimicrobial activity against Alternaria kikuchiana at 50 ppm after 4 days at 28 degC.
In test [18] the test system is Venturia inaequalis. Put plainly: Antimicrobial activity against Venturia inaequalis at 50 ppm after 11 days at 18 degC.
Test [19] concerns Rhynchosporium secalis. The test is described as follows: Antimicrobial activity against Rhynchosporium secalis at 50 ppm after 11 days at 18 degC.

With `C=C1C(=O)O[C@H]2CC[C@H](C)CC[C@@H]12`, the Activity is listed as 102% in the test with P388 [1]; 50% with P388 [2]; 15% in the test with P388 [3]; 0% in the test on Rhizoctonia solani; 0% in the test with Blumeria graminis; 100% in the test on Pythium aphanidermatum. In the test on Venturia inaequalis [4], this molecule gave an Activity of 0%.
Take `O=C1C[C@@H]2CCCC[C@H](O)[C@@H]2O1`: the Activity in the test with Mycosphaerella [5], in the test with Pyrenophora graminea [6], in the test on Alternaria [7], with Venturia inaequalis [8], with Rhynchosporium secalis [9] and with Rhizoctonia solani was 0% throughout. Besides, the Activity in the test with Blumeria graminis amounted to 90%; with Pythium aphanidermatum, 0%; in the test with Venturia inaequalis [4], 0%; with Mycosphaerella [10], 0%; in the test with Pyrenophora graminea [11], 0%; with Alternaria [12] it was 0%. The Activity with Venturia inaequalis [13], in the test on Rhynchosporium secalis [14], with Mycosphaerella [15], in the test on Pyrenophora graminea [16], in the test on Alternaria [17] and in the test with Venturia inaequalis [18] was 0% each time. The molecule further registered an Activity in the test with Rhynchosporium secalis [19] of 0%.
Turning to `C=C1C(=O)O[C@H]2CC[C@@H](C)CC[C@@H]12`, the Activity in the test with P388 [1] came to 101%; in the test on P388 [2] it was 69%; in the test on P388 [3], 38%; in the test with Rhizoctonia solani it was 0%; in the test with Blumeria graminis it was 0%; in the test on Pythium aphanidermatum, 70%. In addition, in the test on Venturia inaequalis [4], the Activity came out at 0%.
For `C=C1C(=O)O[C@H]2[C@@H](OC(C)=O)CCCC[C@@H]12`, the Activity with P388 [1] amounted to 102%; in the test on P388 [2], 21%; in the test with P388 [3], 9%; with Rhizoctonia solani, 30%; with Blumeria graminis, 30%; in the test with Pythium aphanidermatum, 100%. This molecule also gave an Activity in the test on Venturia inaequalis [4] of 0%.
Turning to `C=C1C(=O)O[C@H]2[C@@H](O)CCCC[C@@H]12`, the Activity in the test with P388 [1] turned out to be 100%; with P388 [2], 40%; in the test on P388 [3] it was 11%; with Mycosphaerella [5], 100%; in the test on Pyrenophora graminea [6], 50%; with Alternaria [7], 40%. Further, the Activity in the test with Venturia inaequalis [8] is on record as 0%; in the test on Rhynchosporium secalis [9], 100%; with Rhizoctonia solani, 50%; with Blumeria graminis, 50%; with Pythium aphanidermatum, 100%; with Venturia inaequalis [4] it was 0%. Moreover, the Activity came out at 80% with Mycosphaerella [10]; 0% in the test on Pyrenophora graminea [11]; 20% with Alternaria [12]; 50% in the test with Venturia inaequalis [13]; 60% in the test on Rhynchosporium secalis [14]; 70% in the test with Mycosphaerella [15]. Also, the results for the Activity with Pyrenophora graminea [16], in the test with Alternaria [17] and in the test with Rhynchosporium secalis [19] were 0%, 0% and 30%, respectively.
Take `C=C1C(=O)O[C@H]2CCCCC[C@@H]12`: the Activity in the test with P388 [1] is 102%; in the test on P388 [2], 76%; with P388 [3] it was 9%; in the test with Rhizoctonia solani, 0%; in the test with Blumeria graminis, 0%; with Pythium aphanidermatum, 0%. In the test with Venturia inaequalis [4], this molecule had an Activity of 90%.
On to `CC1=C2CCCCC[C@@H]2OC1=O`, for which the Activity in the test on P388 [1] was determined as 43%; in the test with P388 [2] it was 4%; in the test with P388 [3], 7%.
